Tests used:
Homo sapiens = species on record: Homo sapiens; test: Ratio of IC50 for Mer (unknown origin) to IC50 for Axl (unknown origin)
BaF3 = test: Ratio of IC50 for Mer in mouse BaF3 cells to IC50 for Axl in mouse BaF3 cells; assay type: cell-based
[1] = target: T1, Tyrosine-protein kinase Mer (Mus musculus, UniProt Q60805); test: Inhibition of Mer in mouse BaF3 cells; assay type: cell-based
T1 sequence (Q60805 whole entry): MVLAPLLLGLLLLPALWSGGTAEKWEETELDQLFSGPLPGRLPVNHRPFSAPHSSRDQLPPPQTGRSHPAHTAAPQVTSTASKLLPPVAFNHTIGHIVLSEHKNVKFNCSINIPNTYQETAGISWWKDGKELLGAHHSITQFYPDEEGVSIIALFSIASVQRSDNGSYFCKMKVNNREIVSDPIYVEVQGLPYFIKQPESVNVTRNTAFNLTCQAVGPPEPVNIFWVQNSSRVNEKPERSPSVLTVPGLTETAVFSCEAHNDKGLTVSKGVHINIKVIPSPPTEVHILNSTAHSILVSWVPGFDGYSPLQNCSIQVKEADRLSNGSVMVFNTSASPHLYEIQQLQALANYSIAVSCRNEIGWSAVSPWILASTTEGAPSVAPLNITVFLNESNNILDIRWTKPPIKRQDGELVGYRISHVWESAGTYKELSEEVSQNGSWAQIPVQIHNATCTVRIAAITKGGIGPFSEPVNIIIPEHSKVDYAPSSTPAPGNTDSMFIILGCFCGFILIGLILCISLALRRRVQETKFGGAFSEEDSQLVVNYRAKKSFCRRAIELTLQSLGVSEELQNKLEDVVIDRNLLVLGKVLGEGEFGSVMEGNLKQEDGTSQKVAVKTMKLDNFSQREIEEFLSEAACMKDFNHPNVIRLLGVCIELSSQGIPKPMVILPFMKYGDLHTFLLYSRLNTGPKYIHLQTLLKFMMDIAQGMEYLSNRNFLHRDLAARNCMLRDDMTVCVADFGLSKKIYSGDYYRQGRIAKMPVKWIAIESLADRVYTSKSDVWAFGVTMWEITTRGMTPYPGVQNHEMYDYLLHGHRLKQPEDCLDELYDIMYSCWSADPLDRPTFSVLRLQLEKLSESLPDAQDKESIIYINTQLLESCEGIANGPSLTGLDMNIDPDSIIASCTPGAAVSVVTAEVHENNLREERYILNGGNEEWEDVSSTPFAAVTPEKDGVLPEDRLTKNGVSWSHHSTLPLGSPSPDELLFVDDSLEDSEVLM

[2] = target: T2, Tyrosine-protein kinase receptor UFO (Homo sapiens, UniProt P30530); test: Inhibition of Axl (unknown origin) by cell free assay
T2 sequence (P30530 whole entry): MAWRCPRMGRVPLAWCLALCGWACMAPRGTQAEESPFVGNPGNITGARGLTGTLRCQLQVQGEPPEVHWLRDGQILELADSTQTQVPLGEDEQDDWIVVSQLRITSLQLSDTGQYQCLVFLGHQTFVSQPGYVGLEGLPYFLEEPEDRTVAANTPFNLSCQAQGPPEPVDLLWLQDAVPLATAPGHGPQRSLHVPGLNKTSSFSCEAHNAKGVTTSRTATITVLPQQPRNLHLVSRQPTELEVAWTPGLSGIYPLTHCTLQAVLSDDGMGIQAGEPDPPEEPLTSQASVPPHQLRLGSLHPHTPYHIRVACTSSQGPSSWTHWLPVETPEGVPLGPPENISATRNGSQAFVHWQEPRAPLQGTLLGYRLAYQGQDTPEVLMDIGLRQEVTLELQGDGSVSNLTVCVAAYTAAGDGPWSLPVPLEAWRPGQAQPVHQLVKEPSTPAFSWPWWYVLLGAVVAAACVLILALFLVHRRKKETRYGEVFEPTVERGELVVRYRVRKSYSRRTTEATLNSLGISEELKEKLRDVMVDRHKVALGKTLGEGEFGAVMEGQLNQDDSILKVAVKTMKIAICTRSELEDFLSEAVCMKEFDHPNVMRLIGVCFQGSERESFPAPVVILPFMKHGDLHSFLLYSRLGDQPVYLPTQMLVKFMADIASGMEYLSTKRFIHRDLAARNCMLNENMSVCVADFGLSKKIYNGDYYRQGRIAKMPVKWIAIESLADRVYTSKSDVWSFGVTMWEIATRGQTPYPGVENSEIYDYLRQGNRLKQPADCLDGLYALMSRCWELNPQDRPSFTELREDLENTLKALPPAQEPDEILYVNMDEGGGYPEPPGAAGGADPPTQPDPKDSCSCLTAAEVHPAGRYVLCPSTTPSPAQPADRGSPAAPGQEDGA

[3] = target: T3, Tyrosine-protein kinase Mer (Homo sapiens, UniProt Q12866); test: Inhibition of Mer (unknown origin) by cell free assay
T3 sequence (Q12866 whole entry): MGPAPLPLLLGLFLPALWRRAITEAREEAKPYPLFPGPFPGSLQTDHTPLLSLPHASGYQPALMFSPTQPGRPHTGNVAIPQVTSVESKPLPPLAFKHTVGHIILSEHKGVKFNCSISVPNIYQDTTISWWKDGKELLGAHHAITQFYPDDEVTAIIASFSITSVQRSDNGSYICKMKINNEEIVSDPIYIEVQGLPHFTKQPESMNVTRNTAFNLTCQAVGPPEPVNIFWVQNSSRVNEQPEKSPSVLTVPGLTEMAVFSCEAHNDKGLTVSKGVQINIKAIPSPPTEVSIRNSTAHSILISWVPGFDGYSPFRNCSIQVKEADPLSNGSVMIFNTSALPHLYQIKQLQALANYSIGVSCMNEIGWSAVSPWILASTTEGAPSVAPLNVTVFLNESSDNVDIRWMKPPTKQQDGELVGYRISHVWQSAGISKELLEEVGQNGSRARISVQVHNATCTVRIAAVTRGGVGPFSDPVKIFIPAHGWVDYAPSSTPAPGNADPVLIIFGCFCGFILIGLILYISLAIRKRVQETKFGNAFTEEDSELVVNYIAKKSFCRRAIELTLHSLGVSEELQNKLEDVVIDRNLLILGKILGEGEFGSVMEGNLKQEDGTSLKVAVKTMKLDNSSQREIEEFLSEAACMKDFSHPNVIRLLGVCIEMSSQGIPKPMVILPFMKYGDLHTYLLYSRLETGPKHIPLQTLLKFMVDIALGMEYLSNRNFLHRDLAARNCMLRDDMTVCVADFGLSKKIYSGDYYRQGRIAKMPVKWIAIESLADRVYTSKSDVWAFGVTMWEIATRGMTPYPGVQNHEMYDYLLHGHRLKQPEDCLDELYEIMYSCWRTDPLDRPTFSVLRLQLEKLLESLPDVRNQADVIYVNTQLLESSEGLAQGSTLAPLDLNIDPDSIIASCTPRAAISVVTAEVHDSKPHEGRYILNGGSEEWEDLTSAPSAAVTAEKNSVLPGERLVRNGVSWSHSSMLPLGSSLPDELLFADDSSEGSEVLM

[4] = target: T4, Tyrosine-protein kinase receptor UFO (Mus musculus, UniProt Q00993); test: Inhibition of Axl in mouse BaF3 cells; assay type: cell-based
T4 sequence (Q00993 whole entry): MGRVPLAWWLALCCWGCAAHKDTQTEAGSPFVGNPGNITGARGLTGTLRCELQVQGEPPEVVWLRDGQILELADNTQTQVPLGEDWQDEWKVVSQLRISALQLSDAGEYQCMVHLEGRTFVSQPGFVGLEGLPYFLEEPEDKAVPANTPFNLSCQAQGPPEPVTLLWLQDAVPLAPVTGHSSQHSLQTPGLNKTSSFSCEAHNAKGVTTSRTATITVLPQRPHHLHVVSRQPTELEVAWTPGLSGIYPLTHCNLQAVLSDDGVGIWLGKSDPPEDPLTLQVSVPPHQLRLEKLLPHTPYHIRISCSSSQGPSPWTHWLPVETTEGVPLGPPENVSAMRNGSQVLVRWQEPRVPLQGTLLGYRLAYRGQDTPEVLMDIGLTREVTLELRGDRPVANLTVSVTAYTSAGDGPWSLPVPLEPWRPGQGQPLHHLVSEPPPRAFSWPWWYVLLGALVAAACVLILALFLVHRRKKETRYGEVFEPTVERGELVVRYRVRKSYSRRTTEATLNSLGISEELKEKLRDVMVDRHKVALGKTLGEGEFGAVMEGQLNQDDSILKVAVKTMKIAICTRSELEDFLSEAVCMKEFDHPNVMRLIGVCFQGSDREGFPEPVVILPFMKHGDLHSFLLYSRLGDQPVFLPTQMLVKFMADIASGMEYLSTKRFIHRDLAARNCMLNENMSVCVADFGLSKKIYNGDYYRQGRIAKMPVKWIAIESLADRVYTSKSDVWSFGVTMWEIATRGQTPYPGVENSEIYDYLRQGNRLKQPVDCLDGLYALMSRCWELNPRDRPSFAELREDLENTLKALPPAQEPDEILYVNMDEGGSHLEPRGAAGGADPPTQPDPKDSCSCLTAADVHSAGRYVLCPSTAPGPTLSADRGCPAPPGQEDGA

| Ratio IC50 (Homo sapiens) | IC50 [1] | IC50 [2] | IC50 [3] | IC50 [4] | Compound | Ratio IC50 (BaF3) |
| --- | --- | --- | --- | --- | --- | --- |
| 18 | 130 nM | 8.5 nM | 150 nM | 49 nM | CN1CCC(CN2CCc3c(ncnc3Oc3ccc(NC(=O)c4cn(CCF)c(=O)n(-c5ccc(F)cc5)c4=O)cc3F)C2)CC1 | 2.7 |
| 37 | 130 nM | 2.4 nM | 88 nM | 16 nM | CN1CCC(CN2CCc3c(ncnc3Oc3ccc(NC(=O)c4cn(CC5CCC5)c(=O)n(-c5ccc(F)cc5)c4=O)cc3F)C2)CC1 | 8.1 |
| 33 | 51 nM | 1.9 nM | 62 nM | 8.4 nM | CN1CCC(CN2CCc3c(ncnc3Oc3ccc(NC(=O)c4cn(CC5CC5)c(=O)n(-c5ccc(F)cc5)c4=O)cc3F)C2)CC1 | 6.1 |
| 5.5 | 55 nM | 5.6 nM | 31 nM | 13 nM | CC(C)n1cc(C(=O)Nc2ccc(Oc3ncnc4c3CCN(C3CCN(C)CC3)C4)c(F)c2)c(=O)n(-c2ccc(F)cc2)c1=O | 4.2 |
| 26 | 4110 nM | 32 nM | 830 nM | 770 nM | CN1CCC(CN2CCc3c(ncnc3Oc3ccc(NC(=O)c4cn(C5CC5)c(=O)n(-c5ccc(F)cc5)c4=O)cc3F)C2)CC1 | 5.3 |
| 20 | 110 nM | 5.5 nM | 110 nM | 46 nM | CC(C)Cn1cc(C(=O)Nc2ccc(Oc3ncnc4c3CCN(CC3CCN(C)CC3)C4)c(F)c2)c(=O)n(-c2ccc(F)cc2)c1=O | 2.4 |

The remaining lines, values behind:

| Compound | Ratio IC50 (Homo sapiens) | IC50 [1] | IC50 [2] | IC50 [3] | IC50 [4] | Ratio IC50 (BaF3) |
| --- | --- | --- | --- | --- | --- | --- |
| CC(C)n1cc(C(=O)Nc2ccc(Oc3ncnc4c3CCN(C(=O)CN3CCOCC3)C4)c(F)c2)c(=O)n(-c2ccc(F)cc2)c1=O | 10 | 910 nM | 17 nM | 170 nM | 130 nM | 7 |
| CC(C)n1cc(C(=O)Nc2ccc(Oc3ncnc4c3CCN(CC(=O)N3CCC3)C4)c(F)c2)c(=O)n(-c2ccc(F)cc2)c1=O | 14 | 370 nM | 14 nM | 200 nM | 66 nM | 5.6 |
| CC(C)n1cc(C(=O)Nc2ccc(Oc3ncnc4c3CN(CC3CCOCC3)C4)c(F)c2)c(=O)n(-c2ccc(F)cc2)c1=O | 4 | 240 nM | 8.6 nM | 34 nM | 93 nM | 2.6 |
| CC(C)n1cc(C(=O)Nc2ccc(Oc3ncnc4c3CCN(C(=O)C3CCN(C)CC3)C4)c(F)c2)c(=O)n(-c2ccc(F)cc2)c1=O | 42 | 630 nM | 12 nM | 500 nM | 120 nM | 5.3 |
| Cc1ccc(-n2c(=O)c(C(=O)Nc3ccc(Oc4ncnc5c4CCN(CC4CCN(C)CC4)C5)c(F)c3)cn(CC3CC3)c2=O)nc1 | 51 | 210 nM | 5.3 nM | 270 nM | 34 nM | 6.2 |
| CC(C)n1cc(C(=O)Nc2ccc(Oc3ncnc4c3CN(C(=O)CCN3CCCC3)C4)c(F)c2)c(=O)n(-c2ccc(F)cc2)c1=O | 11 | 280 nM | 15 nM | 160 nM | 120 nM | 2.3 |
| CC(C)n1cc(C(=O)Nc2ccc(Oc3ncnc4c3CCN(C3CCN(CC5CC5)CC3)C4)c(F)c2)c(=O)n(-c2ccc(F)cc2)c1=O | 9.7 | 79 nM | 3.5 nM | 34 nM | 20 nM | 4 |
| CC(C)n1cc(C(=O)Nc2ccc(Oc3ncnc4c3CCN(CC3CN(C)C3)C4)c(F)c2)c(=O)n(-c2ccc(F)cc2)c1=O | 12 | 92 nM | 6.3 nM | 77 nM | 22 nM | 4.2 |
| CC(C)n1cc(C(=O)Nc2ccc(Oc3ncnc4c3CCN(C3CN(C)C3)C4)c(F)c2)c(=O)n(-c2ccc(F)cc2)c1=O | 7.1 | 24 nM | 3.8 nM | 27 nM | 5.3 nM | 4.5 |

Source: ChEMBL document CHEMBL4823291, “Discovery of 5,6,7,8-tetrahydropyrido[3,4-d]pyrimidine derivatives as novel selective Axl inhibitors” (Bioorg Med Chem Lett, 2021)
